*1 amine or outer side, *2 acyl side, *3 side chain or, on linkers, in order; H or OH if unused. Where a SMILES comes first, the peptide text is derived from it. [ ]: non-standard residue; d: D form. X1 = O=C(O)COc1ccc(C[C@H](N[*:1])C(=O)[*:2])cc1C(=O)O

The target of this experiment is T1, Tyrosine-protein phosphatase non-receptor type 1 (Homo sapiens, UniProt P18031).
T1 sequence (P18031 whole entry): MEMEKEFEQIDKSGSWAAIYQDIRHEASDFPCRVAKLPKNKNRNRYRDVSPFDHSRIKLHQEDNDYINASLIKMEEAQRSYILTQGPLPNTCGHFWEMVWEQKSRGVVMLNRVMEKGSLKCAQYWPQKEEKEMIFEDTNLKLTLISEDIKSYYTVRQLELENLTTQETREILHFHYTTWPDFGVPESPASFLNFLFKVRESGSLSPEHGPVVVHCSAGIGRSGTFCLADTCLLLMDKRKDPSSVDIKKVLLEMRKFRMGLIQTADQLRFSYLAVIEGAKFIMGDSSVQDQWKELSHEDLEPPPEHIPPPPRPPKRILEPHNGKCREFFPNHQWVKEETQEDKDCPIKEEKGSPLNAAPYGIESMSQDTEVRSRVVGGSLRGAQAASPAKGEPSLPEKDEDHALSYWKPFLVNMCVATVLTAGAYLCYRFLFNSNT
In words: In vitro inhibitory concentration against Protein-tyrosine phosphatase 1B hydrolysis of p-nitrophenol phosphate.

Take `CCC(C)[C@H](NC(=O)C(Cc1ccc(OCC(=O)O)c(C(=O)O)c1)NC(=O)[C@H](CC(=O)O)NC(C)=O)C(N)=O` (stereo partly drawn): the affinity, expressed as Ki, was 41 µM.

`CC[C@H](C)[C@H](NC(=O)[C@H](Cc1ccc(OCC(=O)O)c(C(=O)O)c1)NC(=O)[C@H](CC(=O)O)NC(C)=O)C(=O)N[C@@H](CCCN=C(N)N)C(=O)NCC(=O)NCC(=O)NCC(N)=O` (Ac-D[X1]IRGGG-NH2) showed a Ki of 18 µM.

The compound `CC[C@@H](C)[C@H](NC(=O)C(Cc1ccc(OCC(=O)O)c(C(=O)O)c1)NC(=O)[C@H](CC(=O)O)NC(C)=O)C(=O)N[C@@H](CCCN=C(N)N)C(N)=O` (stereo partly drawn) displayed an inhibitory constant (Ki) of 11 µM.

As usually defined, the Ki is the equilibrium dissociation constant of an inhibitor or competing ligand from its target.

Source of the values: ChEMBL document CHEMBL1137043, “Development of a polyvalent assay system for lead identification” (Bioorg Med Chem Lett, 2004).
